Columns and labels:
Format in all cases: cell-based
[1] = test system: IG20-SVs; assay: RT-PCR of IG20-SVs in shRNA-transduced PA-1 cells; details: PA-1, 72 hours post-transduction
Procedure: The effects of IG20 down-modulation in PA-1 cells were analyzed. Down-modulation of endogenous IG20 in PA-1 cells was analyzed. RT-PCR of IG20-SVs using F2-B2 primers from PA-1 cells 72 hours post-transduction was performed. Amplification of only IG20pa and MADD using 13L-F and B2 primers was performed. Nuclear Condensation was also determined. 72 hours post-transduction, PA-1 cells were stained with Hoechst stain and analyzed by FACS. Mitochondrial Depolarization was performed. 72 hours post transduction, PA-1 cells were stained with TMRM and analyzed by FACS.
RT-PCR. Total RNA was extracted from 1×10^6 transduced cells using Trizol (Invitrogen Life Technologies, Carlsbad, Calif.), and 1 jig of RNA was used for RT-PCR using the Super-Script One-Step RT-PCR system (Invitrogen Life Technologies, Carlsbad, Calif.). Briefly, the cDNAs were synthesized at 50° C. for 30 minutes followed by incubation at 94° C. for 2 minutes. Subsequently, 35 cycles of PCR were carried out with de-naturation at 95° C. for 30 seconds, annealing at 55° C. for 30 seconds and extension at 72° C. for 1 minute. This was followed by a final incubation at 72° C. for 7 minutes. The sequences of F2-B2 and GAPDH primers were as published (Al-Zoubi et al., (2001), J Biol Chem, 276 (50), 47202-11.). 13L-Forward (5′[…]3′ (SEQ ID NO: 15)) and B2-reverse primers were used to amplify only MADD and IG20pa. […]

[2] = test system: ERK1/2; assay: TNF-α induced ERK phosphorylation in PA-1 cells (immunoblot); details: PA-1, TNF-α 50 ng/mL 15 min, 48 h transduction, compared to SCR
Procedure: (A) HeLa cells (3×10^6 per 100 mm dish) were transduced with different lentiviruses expressing SCR, Mid and 16E ShRNA for 48 h. The cells were then serum starved for 6 h and were either left untreated or treated with TNF-α (50 ng/mL) for 15 min. Cell lysates were analyzed for phosphorylated ERK or total ERK by immunoblot. (B) PA-1 cells (5×10^6 per 100 mm dish) were transduced with different lentiviruses expressing SCR, Mid and 13L ShRNA for 48 h. The cells were then serum starved for 6 h and were either left unstimulated or stimulated with TNF-α (50 ng/mL) for 15 min. Cell lysates were analyzed for phosphorylated ERK or total ERK by immunoblot. (C) HeLa cells (3×10^5 per 60 mm dish) were either left untransfected or transfected with either SirMADD or EYFPC1 plasmids. Twenty-four hours post-transfection, the cells were infected with Mid ShRNA. Forty-eight hours post transduction, the cells were either left unstimulated or stimulated with TNF-α (50 ng/mL) for 15 min. Cell lysates were analyzed for phosphorylated ERK or total ERK by immunoblot. […]
Whether MADD isoform alone is playing a critical role in TNF-α induced ERK activation was determined. […] To delineate the role of MADD from DENN-SV, the effect of IG20 down-modulation upon TNF-α induced ERK phosphorylation was analyzed in PA-1 ovarian carcinoma cell line which expresses only two IG20 isoforms namely, MADD and DENN-SV. […]

[3] = test system: IG20-SVs; assay: Screening of shRNAs: knock-down of exogenous IG20-SV-YFP expression in 293T cells (flow cytometry)
Procedure: In order to determine which of the IG20-SVs contribute to apoptosis and cell proliferation, siRNA (small inhibitory RNA) approach was used to selectively knockdown IG20-SVs (Table 1). The siRNAs were cloned into the pSUPER vector to allow for expression of shRNAs (small hairpin RNAs). 293T cells were co-transfected with YFPIG20pa, YFP-MADD or YFP-DENN-SV along with different shRNA-expressing pSUPER vectors at ratios of 1:1, 1:3 and 1:7. Knock-down of protein expression was assessed by a reduction in YFP expression using flow cytometry. Several shRNAs were screened. Knock-down of expression of exogenous IG20-SVs were analyzed. 293T cells were plated onto 12-well plates and cotransfected with the indicated IG20-SV-YFP and pSUPER-shRNA constructs. YFP expression was represented as Mean Fluorescence Intensity. Specificity of Mid-shRNA was analyzed. The inability of Mid-shRNA to suppress the expression of mutant-IG20pa, -MADD, and -DENN-SV constructs was analyzed. […] Vector alone or a control shRNA had little or no effect on the expression of IG20-SVs. The sequences provided in Table 1 are exemplary and other sequences that specifically target MADD or any other isoform can be designed by those of skill in the art based on the information given in Table 1 and the disclosure in general.
To further confirm specificity of Mid-shRNA, silent mutations were created in cDNAs encoding IG20-SVs at sites corresponding to the 5th, 7th, 11th and 14th nucleotides of the Mid-shRNA. These mutations neither affected the amino acid sequence nor protein expression. Mutant-IG20-SV constructs were cotransfected with the pSUPER-shRNA and assessed for their expression. […] FIG. 18 is a schematic illustration of the targets of some of the shRNAs used to knock-down specific IG20 splice variants (isoforms). FIG. 11 provides schematic illustration of screening for shRNAs (A) and lentivirus production that contain the shRNA expressing vectors (B). Fluorescence values were measured from cells transfected with the respective shRNAs (FIG. 12).
Screening of shRNAs. IG20-YFP constructs were co-transfected with different pSUPER-shRNA constructs in different ratios (1:1, 1:3, 1:7) into 293T cells using Calcium phosphate. 24 hours post-transduction, cells were trypsinized, collected and washed twice in cold PBS, and analyzed for YFP expression by flow cytometry using a FACS Calibur (Becton Dickinson, N.J.).

13L-shRNA: shRNA targeting exon 13L (IG20, MADD), 5′ CGGCGAATCTATGACAATC-3′ (SEQ ID NO: 4)
Down-modulation of endogenous IG20-SVs (RT-PCR) [1]: abrogated only MADD expression
TNF-α induced ERK activation [2]: significant abrogation of ERK activation
Effect on IG20-SVs devoid of the targeted exon (specificity) [3]: little or no effect on IG20-SVs devoid of the targeted exon
Knock-down of expression of exogenous IG20-SVs (YFP expression, Mean Fluorescence Intensity) ([3]; 293T cells cotransfected with IG20-SV-YFP and pSUPER-shRNA, ratios 1:1, 1:3, 1:7): down-modulated IG20pa/MADD, leaving the expression of IG20-SV2 and DENN-SV unaltered

— patent US7910723B2, “IG20 splice variants therapeutics for cancer” (The Board of Trustees of the University of Illinois, priority 2006, dated 2011)
